Measured values as given in patent US10064848B2, “Pyridic ketone derivatives, method of preparing same, and pharmaceutical application thereof” (Shanghai Hengrui Pharmaceutical Co., Ltd., priority 2013, dated 2018).

What was measured:
[1] = tested on: Colo205 cell; experiment: Proliferation inhibition on Colo205 (CCK8); assay type: cell-based; conditions: Homo sapiens, COLO 205, Colo205, 72 hours
Text: Cell line used in the assay: Colo205 (Cell Bank of the Chinese Academy of Sciences, Catalog No. TCHu102).
The following in vitro cell assay is to determine the activity of the compounds of the present invention for inhibiting the proliferation of human colon cancer cell, and the activity is expressed as IC50. General programs of this kind of assay were as follows: First, the cell line to be tested (purchased from Cell Bank of the Chinese Academy of Sciences) was inoculated in a 96-well culture plate with a suitable cell concentration of 4000 cells/mL medium, and was cultured in a carbon dioxide incubator at 37° C., then grown overnight. The medium was replaced by new medium added with a series of concentrations (10000 nM, 1000 nM, 100 nM, 10 nM, 1 nM, 0.1 nM) of the test compound solutions. The plates were placed back in the incubator, and continuously cultured for 72 hours. After 72 hours, CCK8 (Cell Counting Kit-8, Catalog No.: CK04, purchased from colleagues chemical company) method was used to determine the proliferation inhibition activity of the test compounds. IC50 values were calculated from the inhibition data of the test compounds at a series of different concentrations.
The above assay was used to determine the biochemical activity of the compounds of the present invention.

[2] = target: T1, MEK1 (Recombinant Human Protein) (Homo sapiens, UniProt Q02750); experiment: MEK1 kinase inhibition assay (Z'-LYTE Kinase Assay Kit-Ser/Thr 03 Peptide); assay type: biochemical; conditions: 4 hours at 37° C, read-out: IC50 for inhibiting MEK kinase (MEK1)
T1 construct: purchased Invitrogen PV3093
T1 sequence (Q02750 whole entry): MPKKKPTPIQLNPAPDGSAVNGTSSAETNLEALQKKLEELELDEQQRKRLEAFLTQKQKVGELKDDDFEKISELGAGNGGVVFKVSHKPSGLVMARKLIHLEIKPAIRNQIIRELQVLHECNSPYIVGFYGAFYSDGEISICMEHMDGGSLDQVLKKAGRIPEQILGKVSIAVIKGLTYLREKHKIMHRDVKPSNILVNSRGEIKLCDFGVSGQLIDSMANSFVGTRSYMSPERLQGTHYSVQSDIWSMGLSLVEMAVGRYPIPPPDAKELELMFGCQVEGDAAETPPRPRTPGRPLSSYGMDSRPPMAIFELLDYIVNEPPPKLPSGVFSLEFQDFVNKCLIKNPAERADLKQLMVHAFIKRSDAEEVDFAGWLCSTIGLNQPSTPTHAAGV
Procedure: MEK1 kinase activity was tested in vitro by the following method.
MEK kinase used in the assay: MEK1 (Recombinant Human Protein, Invitrogen, Catalog No. PV3093).
Kit used in the assay: Z′-LYTE™ Kinase Assay Kit-Ser/Thr 03 Peptide (Invitrogen, Catalog No. PV3176).
The following in vitro assay was used to determine the activity of the compounds of the present invention for inhibiting the […] MEK kinase. The test compound was dissolved in dimethyl sulfoxide to the desired concentration. 1× Buffer A (Invitrogen, Catalog No. PV3189) was prepared, ATP was diluted with 1× Buffer A to obtain 400 μM ATP solution, appropriate amounts of Z′-LYTE™ Ser/Thr 03 Peptide (Invitrogen, Catalog No. PV3200), MEK kinase (MEK1) Enzymes and 1× Buffer A were mixed, and appropriate amounts of Z′-LYTE™ Ser/Thr 03 phosphoPeptide substrate (Invitrogen, Catalog No. PV3215) and 1× Buffer A were formulated into a mixture to be tested. The 4% DMSO solution of the test compound was prepared from 1× buffer and DMSO solution of the test compound. 2.5 μL DMSO solution of the test compound was added to a reaction well, and then 1× Buffer A, 2.5 μL of 400 μM ATP solution, 5 μL of enzyme and substrate mixture were added to become a 10 μL of reaction system. The reaction system was incubated for 4 hours at 37° C., and a mixture was prepared according to Reagent A:Buffer B=1:1024. 5 μL of a mixture of Reagent A (Invitrogen, Catalog No. PV3295) and Buffer B (Invitrogen, Catalog No. P3127) was added to a reaction well, the reaction system was incubated for 60 minutes at 25° C. The fluorescence was read by a NovoStar ELISA with excitation wavelength: 400 nm, and emission wavelength: 445 nm and 520 nm.
The activity of the compounds of the present invention: The above assay was used to determine the biochemical activity of the compounds of the present invention for inhibiting MEK kinase (MEK1).

SMILES: Cc1c(Oc2cc(=O)n(C)c(Nc3ccc(I)cc3F)c2C(N)=O)cccc1C(=O)NC1CC1 [Example 11, 4-(3-(cyclopropylcarbamoyl)-2-methylphenoxy)-2-((2-fluoro-4-iodophenyl)amino)-1-methyl-6-oxo-1,6-dihydropyridine-3-carboxamide]
- IC50 [1]: 4.3 nM
- IC50 [2]: 5.5 nM

SMILES: Cc1c(O)cccc1Oc1cc(=O)n(C)c(Nc2ccc(I)cc2F)c1C(N)=O [Example 24, 4-(3-hydroxy-2-methylphenoxy)-2-((2-fluoro-4-iodophenyl)amino)-1-methyl-6-oxo-1,6-dihydropyridine-3-carboxamide]
- IC50 [1]: 3.1 nM
- IC50 [2]: 4 nM

SMILES: Cc1ccc(Oc2cc(=O)n(C)c(Nc3ccc(I)cc3F)c2C(N)=O)c(Cl)c1 [Example 15, 4-(2-chloro-4-methylphenoxy)-2-((2-fluoro-4-iodophenyl)amino)-1-methyl-6-oxo-1,6-dihydropyridine-3-carboxamide]
- IC50 [1]: 10.2 nM
- IC50 [2]: 8.2 nM

SMILES: Cc1c(Oc2cc(=O)n(C)c(Nc3ccc(I)cc3F)c2C(N)=O)cccc1O[C@@H]1CCOC1 [Example 12, (R)-2-((2-fluoro-4-iodophenyl)amino)-1-methyl-4-(2-methyl-3-((tetrahydrofuran-3-yl)oxy)phenoxy)-6-oxo-1,6-dihydropyridine-3-carboxamide]
- IC50 [1]: 0.7 nM
- IC50 [2]: 5.1 nM

SMILES: Cc1c(F)cccc1Oc1cc(=O)n(C)c(Nc2ccc(I)cc2F)c1C(=O)NC[C@@H](O)CO [Example 27, (R)-N-(2,3-dihydroxypropyl)-4-(3-fluoro-2-methylphenoxy)-2-((2-fluoro-4-iodophenyl)amino)-1-methyl-6-oxo-1,6-dihydropyridine-3-carboxamide]
- IC50 [2]: 28.3 nM

SMILES: CCS(=O)(=O)Nc1cccc(Oc2c(C(N)=O)c(Nc3ccc(I)cc3F)n(C)c(=O)c2Cl)c1C [Example 5, 4-(3-(ethylsulfonamido)-2-methylphenoxy)-2-((2-fluoro-4-iodophenyl)amino)-1-methyl-5-chloro-6-oxo-1,6-dihydropyridine-3-carboxamide]
- IC50 [2]: 4 nM

SMILES: Cc1cccc(Oc2cc(=O)n(C)c(Nc3ccc(I)cc3F)c2C(N)=O)c1F [Example 19, 4-(2-fluoro-3-methylphenoxy)-2-((2-fluoro-4-iodophenyl)amino)-1-methyl-6-oxo-1,6-dihydropyridine-3-carboxamide]
- IC50 [1]: 0.8 nM
- IC50 [2]: 5.8 nM

SMILES: Cc1ccncc1Oc1cc(=O)n(C)c(Nc2ccc(I)cc2F)c1C(N)=O [Example 33, 2-((2-fluoro-4-iodophenyl)amino)-1-methyl-4-((4-methylpyridin-3-yl)oxy)-6-oxo-1,6-dihydropyridine-3-carboxamide]
- IC50 [2]: 7.3 nM

SMILES: Cc1cc(Oc2cc(=O)n(C)c(Nc3ccc(I)cc3F)c2C(N)=O)ccn1 [Example 32, 2-((2-fluoro-4-iodophenyl)amino)-1-methyl-4-((2-methylpyridin-4-yl)oxy)-6-oxo-1,6-dihydropyridine-3-carboxamide]
- IC50 [1]: 4 nM
- IC50 [2]: 5.5 nM

SMILES: CCC(=O)Nc1cccc(Oc2cc(=O)n(C)c(Nc3ccc(I)cc3F)c2C(N)=O)c1C [Example 8, 4-(3-propionamido-2-methylphenoxy)-2-((2-fluoro-4-iodophenyl)amino)-1-methyl-6-oxo-1,6-dihydropyridine-3-carboxamide]
- IC50 [1]: 0.5 nM
- IC50 [2]: 3.2 nM

SMILES: Cc1ccc(Oc2cc(=O)n(C)c(Nc3ccc(I)cc3F)c2C(N)=O)c(C)c1 [Example 20, 4-(2,4-dimethylphenoxy)-2-((2-fluoro-4-iodophenyl)amino)-1-methyl-6-oxo-1,6-dihydropyridine-3-carboxamide]
- IC50 [1]: 1.7 nM
- IC50 [2]: 2.9 nM

SMILES: Cc1cccc(Oc2cc(=O)n(C)c(Nc3ccc(I)cc3F)c2C(N)=O)c1C [Example 18, 4-(2,3-dimethylphenoxy)-2-((2-fluoro-4-iodophenyl)amino)-1-methyl-6-oxo-1,6-dihydropyridine-3-carboxamide]
- IC50 [1]: 1.4 nM
- IC50 [2]: 7.9 nM

SMILES: Cc1c(NC(=O)C2CC2)cccc1Oc1cc(=O)n(C)c(Nc2ccc(I)cc2F)c1C(N)=O [Example 7, 4-(3-(cyclopropanecarboxamido)-2-methylphenoxy)-2-((2-fluoro-4-iodophenyl)amino)-1-methyl-6-oxo-1,6-dihydropyridine-3-carboxamide]
- IC50 [1]: 0.4 nM
- IC50 [2]: 5.5 nM

SMILES: Cc1c(Cl)cccc1Oc1cc(=O)n(C)c(Nc2ccc(I)cc2F)c1C(N)=O [Example 14, 4-(3-chloro-2-methylphenoxy)-2-((2-fluoro-4-iodophenyl)amino)-1-methyl-6-oxo-1,6-dihydropyridine-3-carboxamide]
- IC50 [1]: 4.2 nM
- IC50 [2]: 6.2 nM

SMILES: CC(=O)c1cccc(Oc2cc(=O)n(C)c(Nc3ccc(I)cc3F)c2C(N)=O)c1C [Example 13, 4-(3-acetyl-2-methylphenoxy)-2-((2-fluoro-4-iodophenyl)amino)-1-methyl-6-oxo-1,6-dihydropyridine-3-carboxamide]
- IC50 [1]: 2.9 nM
- IC50 [2]: 5.5 nM

SMILES: CCS(=O)(=O)Nc1cccc(Oc2c(C(N)=O)c(Nc3ccc(I)cc3F)n(C)c(=O)c2F)c1C [Example 6, 4-(3-(ethylsulfonamido)-2-methylphenoxy)-2-((2-fluoro-4-iodophenyl)amino)-1-methyl-5-fluoro-6-oxo-1,6-dihydropyridine-3-carboxamide]
- IC50 [2]: 3.4 nM

SMILES: Cc1c(F)cccc1Oc1c(C(N)=O)c(Nc2ccc(I)cc2F)n(C)c(=O)c1F [Example 26, 5-fluoro-4-(3-fluoro-2-methylphenoxy)-2-((2-fluoro-4-iodophenyl)amino)-1-methyl-6-oxo-1,6-dihydropyridine-3-carboxamide]
- IC50 [2]: 3.9 nM

SMILES: CNC(=O)c1cccc(Oc2cc(=O)n(C)c(Nc3ccc(I)cc3F)c2C(N)=O)c1C [Example 10, 4-(2-methyl-3-(methylcarbamoyl)phenoxy)-2-((2-fluoro-4-iodophenyl)amino)-1-methyl-6-oxo-1,6-dihydropyridine-3-carboxamide]
- IC50 [1]: 4.3 nM
- IC50 [2]: 6.3 nM

SMILES: Cc1ccccc1Oc1cc(=O)n(C)c(Nc2ccc(I)cc2F)c1C(N)=O [Example 23, 4-(2-methylphenoxy)-2-((2-fluoro-4-iodophenyl)amino)-1-methyl-6-oxo-1,6-dihydropyridine-3-carboxamide]
- IC50 [1]: 0.4 nM
- IC50 [2]: 4.2 nM

SMILES: Cc1cccc(C)c1Oc1cc(=O)n(C)c(Nc2ccc(I)cc2F)c1C(N)=O [Example 21, 4-(2,6-dimethylphenoxy)-2-((2-fluoro-4-iodophenyl)amino)-1-methyl-6-oxo-1,6-dihydropyridine-3-carboxamide]
- IC50 [1]: 10.2 nM
- IC50 [2]: 6.3 nM

SMILES: Cc1ccc(Oc2cc(=O)n(C)c(Nc3ccc(I)cc3F)c2C(N)=O)c(F)c1 [Example 17, 4-(2-fluoro-4-methylphenoxy)-2-((2-fluoro-4-iodophenyl)amino)-1-methyl-6-oxo-1,6-dihydropyridine-3-carboxamide]
- IC50 [1]: 2 nM
- IC50 [2]: 8.4 nM

SMILES: Cc1c(Oc2cc(=O)n(C)c(Nc3ccc(I)cc3F)c2C(N)=O)cccc1O[C@H]1CCOC1 [Example 9, (S)-2-((2-fluoro-4-iodophenyl)amino)-1-methyl-4-(2-methyl-3-((tetrahydrofuran-3-yl)oxy)phenoxy)-6-oxo-1,6-dihydropyridine-3-carboxamide]
- IC50 [1]: 0.3 nM
- IC50 [2]: 6 nM

SMILES: Cc1c(F)cccc1Oc1cc(=O)n(C)c(Nc2ccc(I)cc2F)c1C(=O)NC[C@H](O)CO [Example 28, (S)-N-(2,3-dihydroxypropyl)-4-(3-fluoro-2-methylphenoxy)-2-((2-fluoro-4-iodophenyl)amino)-1-methyl-6-oxo-1,6-dihydropyridine-3-carboxamide]
- IC50 [2]: 26 nM

SMILES: COc1cccc(Oc2cc(=O)n(C)c(Nc3ccc(I)cc3F)c2C(N)=O)c1C [Example 16, 4-(3-methoxy-2-methylphenoxy)-2-((2-fluoro-4-iodophenyl)amino)-1-methyl-6-oxo-1,6-dihydropyridine-3-carboxamide]
- IC50 [1]: 11.5 nM
- IC50 [2]: 9.5 nM
